From EP0429153A1, “Novel agroclavine and elymoclavine derivatives, processes for their preparation and their use in medicinal preparations” (SCHERING AKTIENGESELLSCHAFT, priority 1989, dated 1991)

Test system: männliche Wistar-Ratten
Assay: Induction of stereotypies in rats, automatic registration (method of Horowski)
Format: in vivo
Settings: intraperitoneal, 60 minutes, n = 12
Source text: Die dopaminagonistische Wirkung wurde mit Hilfe der von Horowski beschriebenen Methode der automatischen Registrierung von Stereotypien an Ratten bestimmt (Arzneim. Forsch. 12, 2281-2286, 1978): Unmittelbar nach intraperitonealer Prüfsubstanz- bzw. Vehikelverabreichung werden männliche Wistar-Ratten (90-120 g) einzeln in Zwangskäfige aus Acrylglas gesetzt. Uber ein vor dem Kopf der Tiere angebrachtes elektrodynamisches Aufnahmesystem wird die Zahl der Kontakte an einem stählernen Becher mit einem zentralen Metallstab als Folge der stereotypen Kau-, Leck- und Nagebewegungen während 60 Minuten registriert. Die Mittelwerte ± S.E.M. der Anzahl der Kontakte während 60 Minuten für die verschiedenen Behandlungsgruppen, die mit jeweils 12 Tieren besetzt sind, werden berechnet und die Signifikanz der Unterschiede zwischen den Mittelwerten der verschiedenen Prüfsubstanzdosen im Vergleich zur Vehikel-behandelten Kontrollgruppe mit Hilfe der einfachen Varianzanalyse in Verbindung mit dem Dunnett-Test ermittelt.

[1] = Prüfsubstanzdosis 0.025 (dose unit not given)
[2] = Prüfsubstanzdosis 0.1 (dose unit not given)
[3] = Prüfsubstanzdosis 0.39 (dose unit not given)
[4] = Prüfsubstanzdosis 1.56 (dose unit not given)

SMILES | Stereotypien (counts pro 60 Minuten) Mittelwert ± S.F.M.) [1] | Stereotypien (counts pro 60 Minuten) Mittelwert ± S.F.M.) [2] [xx counts pro 60 Minuten] | Stereotypien (counts pro 60 Minuten) Mittelwert ± S.F.M.) [3] [xx counts pro 60 Minuten] | Stereotypien (counts pro 60 Minuten) Mittelwert ± S.F.M.) [4] [xx counts pro 60 Minuten] | Stereotypien (counts pro 60 Minuten) Mittelwert ± S.F.M.) (Prüfsubstanzdosis 6.25 (dose unit not given)) [xx counts pro 60 Minuten]
CCCN1CC(C)=C[C@@H]2c3cccc4[nH]c(C)c(c34)C[C@H]21 [CH3 / CH2CH2CH3] | 4726 ± 1148xx counts pro 60 Minuten | 7601 ± 1182 | 9200 ± 672 | 10150 ± 598 | –
CCCN1CC(C)=C[C@@H]2c3cccc4[nH]c(Cl)c(c34)C[C@H]21 [Cl / CH2CH2CH3] | 2091 ± 394 counts pro 60 Minuten | 6470 ± 1018 | 7364 ± 927 | 8837 ± 699 | 10397 ± 1126
